# In PubChem BioAssay AID489040 (Sanford-Burnham Center for Chemical Genomics, 2010):
# Activity calls are given as the source filed them.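 Rule for the calls: active = mean half-maximal activating concentration from the dose-response fit at or below a set limit; inactive = the rest.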
# Target: CHO-XBP1 luciferase reporter, IRE1-XBP1 UPR activation
# Assay: XBP1 luciferase reporter activation – CHO-XBP1 cells, luminescence, counter-screen for apoptotic UPR arm activators, dose response (AID 489040);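 note: reporter read after six hours of compound exposure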
row,EC50,Compound
1,> 80 µM (inactive),Cc1nc([N+](=O)[O-])c(Br)n1CC(=O)c1ccc(Br)cc1
2,> 80 µM (inactive),O=C(CCl)Nc1cccc(CP(=O)(c2ccccc2)c2ccccc2)c1
3,> 80 µM (inactive),CCN(CC)c1ccc(/C=C2\C(=O)N(c3nnc(C)c(=O)[nH]3)N=C2C)cc1
4,> 80 µM (inactive),COc1ccc(-c2cc(C(F)(F)F)nc(S(C)(=O)=O)n2)cc1OC
